Measurements published in paper PMC10712727, “Safety, Tolerability, and Pharmacokinetics of Senaparib, a Novel PARP1/2 Inhibitor, in Chinese Patients With Advanced Solid Tumors: A Phase I Trial” (The Oncologist, 2023).

Tested on: patients with advanced solid tumors
Test: Safety: treatment-emergent and senaparib-related adverse events graded per NCI CTCAE v4.03
Assay type: in vivo
Settings: for ALT increased, All / ALT increased, Gr≥3 / AST increased, All / AST increased, Gr≥3 / Abdominal distension, All / Abdominal distension, Gr≥3 / Anemia (incl. hemoglobin decreased), All / Anemia (incl. hemoglobin decreased), Gr≥3 / Appetite decreased, All / Appetite decreased, Gr≥3 / Asthenia, All / Asthenia, Gr≥3 / Blood bilirubin increased, All / Blood bilirubin increased, Gr≥3 / Blood creatinine increased, All / Blood creatinine increased, Gr≥3 / Hypokalemia, All / Hypokalemia, Gr≥3 / Hyponatremia, All / Hyponatremia, Gr≥3 / Nausea, All / Nausea, Gr≥3 / Neutrophil count decreased, All / Neutrophil count decreased, Gr≥3 / Pain in extremity, All / Pain in extremity, Gr≥3 / Platelet count decreased, All / Platelet count decreased, Gr≥3 / Protein in urine, All / Protein in urine, Gr≥3 / Vomiting, All / Vomiting, Gr≥3 / WBC decreased, All / WBC decreased, Gr≥3: TEAE
Experimental: This phase I, open-label, multicenter, dose-escalation, and dose-expansion study was conducted at three national clinical institutions in China. […] At baseline, all patients enrolled in the dose-escalation phase had to have at least one evaluable lesion, and those in the dose-expansion period had to have at least one measurable lesion, according to Response Evaluation Criteria in Solid Tumors version 1.1 (RECIST v1.1).[16] Entry to the dose-expansion cohort required the presence of a BRCA mutation, with the exception of patients with ovarian carcinoma, fallopian tube carcinoma, and primary peritoneal carcinoma. Full study eligibility criteria are provided in Supplementary Table S1.
Dose escalation was conducted using a modified Fibonacci 3 + 3 method (Supplementary Fig. S1).[17] Patients were administered oral senaparib from a planned starting dose of 2 mg once daily (QD), with preliminary dose escalation to 120 mg via nine dose groups, in order of their entry into the study. At a given dose level, each patient received a single dose of senaparib followed by a 7-day washout period. They then entered a continuous dosing period to confirm the safety and PK profile, in which they received senaparib QD from day 1 to day 21 of each 3-week cycle. Progression to the next higher dose required approval from the Data Safety Monitoring Committee (DSMC) upon review of the safety and PK data of the previous dose. A 50-mg twice-daily (BID) dosing group was added (planned enrollment, n = 6 patients) based on a DSMC review of the safety, PK, and efficacy analysis of the completed QD dose groups in the phase I clinical trial of senaparib dose escalation in Australia (NCT03507543), which commenced prior to the start of this trial.
The dose-expansion period included 3 populations: dose groups in which at least one patient achieved complete response (CR) or partial response (PR) per RECIST v1.1[16] and 1 dose group higher (evaluated for safety), as well as the dose group at the maximum tolerated dose (MTD)/recommended phase II dose (RP2D). Each of these groups included those patients in the respective dose-escalation group plus a planned additional 10 patients (approximately 20 patients in the MTD/RP2D group) with BRCA^mut+ solid tumors (ovarian, breast, or prostate cancer were preferred, and ovarian cancer could be BRCA wild type). Patients received senaparib monotherapy orally QD or BID (50-mg dose only) over each 3-week cycle until disease progression or unacceptable toxicity.
DLTs were predefined toxicities (Supplementary Table S2) recorded over the 7 days following the single-dose administration of senaparib and during the first treatment cycle (day 1-day 21) for each dose group in the dose-escalation period only. The MTD was defined as the maximum dose at which ≤1/6 patients experienced a DLT. Senaparib PK parameters were derived from blood samples collected from patients after the single administration, and at regular intervals during the first cycle of the dose-escalation and dose-expansion periods. Plasma concentrations of senaparib were determined using high-performance liquid chromatography-tandem mass spectrometry. Tumor response was assessed every 6 weeks per RECIST v1.1,[16] recording objective response rate (ORR), disease control rate (DCR), duration of response (DOR), and progression-free survival (PFS) by dose level for all patients and for those harboring BRCA^mut+ tumors.

## O=C(c1cc(Cn2c(=O)[nH]c(=O)c3c(F)cccc32)ccc1F)N1CCN(c2ncccn2)CC1 [Senaparib]
120 mg QD n = 4
  TEAEs leading to death, patients: 0 n (%)
  TEAEs leading to dose discontinuation, events: 2 n ev
  TEAEs leading to dose discontinuation, patients: 1 (25.0) n (%)
  TEAEs leading to dose interruption, events: 3 n ev
  TEAEs leading to dose interruption, patients: 2 (50.0) n (%)
  TEAEs leading to dose reduction, events: 0 n ev
  TEAEs leading to dose reduction, patients: 0 n (%)
  TRAEs Grade ≥3, events: 6 n ev
  TRAEs Grade ≥3, patients: 3 (75.0) n (%)
  TRAEs, events: 47 n ev
  TRAEs, patients: 4 (100) n (%)
  Vomiting TRAE, All: 1 (25.0) n (%)
  Vomiting TRAE, Gr≥3: 0 n (%)
  WBC decreased TRAE, All: 4 (100) n (%)
  WBC decreased TRAE, Gr≥3: 0 n (%)
2-, 10-, 40-, and 60-mg dose groups
  Grade ≥3 TRAEs: no grade ≥3 TRAEs
120-mg dose group
  Grade ≥3 TRAEs, incidence (highest): 75.0%
2 mg QD n = 1
  ALT increased, All: 0 n (%)
  ALT increased, Gr≥3: 0 n (%)
  AST increased, All: 0 n (%)
  AST increased, Gr≥3: 0 n (%)
  Abdominal distension, All: 0 n (%)
  Abdominal distension, Gr≥3: 0 n (%)
  Anemia (incl. hemoglobin decreased), All: 0 n (%)
  Anemia (incl. hemoglobin decreased), Gr≥3: 0 n (%)
  Appetite decreased, All: 1 (100) n (%)
  Appetite decreased, Gr≥3: 0 n (%)
  Asthenia, All: 1 (100) n (%)
  Asthenia, Gr≥3: 0 n (%)
  Blood bilirubin increased, All: 0 n (%)
  Blood bilirubin increased, Gr≥3: 0 n (%)
  Blood creatinine increased, All: 0 n (%)
  Blood creatinine increased, Gr≥3: 0 n (%)
  Hypokalemia, All: 1 (100) n (%)
  Hypokalemia, Gr≥3: 0 n (%)
  Hyponatremia, All: 0 n (%)
  Hyponatremia, Gr≥3: 0 n (%)
  Nausea, All: 0 n (%)
  Nausea, Gr≥3: 0 n (%)
  Neutrophil count decreased, All: 0 n (%)
  Neutrophil count decreased, Gr≥3: 0 n (%)
  Pain in extremity, All: 0 n (%)
  Pain in extremity, Gr≥3: 0 n (%)
  Platelet count decreased, All: 0 n (%)
  Platelet count decreased, Gr≥3: 0 n (%)
  Protein in urine, All: 0 n (%)
  Protein in urine, Gr≥3: 0 n (%)
  Vomiting, All: 0 n (%)
  Vomiting, Gr≥3: 0 n (%)
  WBC decreased, All: 0 n (%)
  WBC decreased, Gr≥3: 0 n (%)
5 mg QD n = 3
  ALT increased, All: 0 n (%)
  ALT increased, Gr≥3: 0 n (%)
  AST increased, All: 0 n (%)
  AST increased, Gr≥3: 0 n (%)
  Abdominal distension, All: 1 (33.3) n (%)
  Abdominal distension, Gr≥3: 0 n (%)
  Anemia (incl. hemoglobin decreased), All: 2 (66.7) n (%)
  Anemia (incl. hemoglobin decreased), Gr≥3: 1 (33.3) n (%)
  Appetite decreased, All: 1 (33.3) n (%)
  Appetite decreased, Gr≥3: 0 n (%)
  Asthenia, All: 2 (66.7) n (%)
  Asthenia, Gr≥3: 0 n (%)
  Blood bilirubin increased, All: 1 (33.3) n (%)
  Blood bilirubin increased, Gr≥3: 0 n (%)
  Blood creatinine increased, All: 0 n (%)
  Blood creatinine increased, Gr≥3: 0 n (%)
  Hypokalemia, All: 0 n (%)
  Hypokalemia, Gr≥3: 0 n (%)
  Hyponatremia, All: 0 n (%)
  Hyponatremia, Gr≥3: 0 n (%)
  Nausea, All: 1 (33.3) n (%)
  Nausea, Gr≥3: 0 n (%)
  Neutrophil count decreased, All: 1 (33.3) n (%)
  Neutrophil count decreased, Gr≥3: 0 n (%)
  Pain in extremity, All: 1 (33.3) n (%)
  Pain in extremity, Gr≥3: 1 (33.3) n (%)
  Platelet count decreased, All: 2 (66.7) n (%)
  Platelet count decreased, Gr≥3: 0 n (%)
  Protein in urine, All: 0 n (%)
  Protein in urine, Gr≥3: 0 n (%)
  Vomiting, All: 0 n (%)
  Vomiting, Gr≥3: 0 n (%)
  WBC decreased, All: 1 (33.3) n (%)
  WBC decreased, Gr≥3: 0 n (%)
10 mg QD n = 3
  ALT increased, All: 1 (33.3) n (%)
  ALT increased, Gr≥3: 0 n (%)
  AST increased, All: 1 (33.3) n (%)
  AST increased, Gr≥3: 0 n (%)
  Abdominal distension, All: 0 n (%)
  Abdominal distension, Gr≥3: 0 n (%)
  Anemia (incl. hemoglobin decreased), All: 1 (33.3) n (%)
  Anemia (incl. hemoglobin decreased), Gr≥3: 0 n (%)
  Appetite decreased, All: 1 (33.3) n (%)
  Appetite decreased, Gr≥3: 0 n (%)
  Asthenia, All: 0 n (%)
  Asthenia, Gr≥3: 0 n (%)
  Blood bilirubin increased, All: 0 n (%)
  Blood bilirubin increased, Gr≥3: 0 n (%)
  Blood creatinine increased, All: 0 n (%)
  Blood creatinine increased, Gr≥3: 0 n (%)
  Hypokalemia, All: 0 n (%)
  Hypokalemia, Gr≥3: 0 n (%)
  Hyponatremia, All: 0 n (%)
  Hyponatremia, Gr≥3: 0 n (%)
  Nausea, All: 0 n (%)
  Nausea, Gr≥3: 0 n (%)
  Neutrophil count decreased, All: 0 n (%)
  Neutrophil count decreased, Gr≥3: 0 n (%)
  Pain in extremity, All: 0 n (%)
  Pain in extremity, Gr≥3: 0 n (%)
  Platelet count decreased, All: 0 n (%)
  Platelet count decreased, Gr≥3: 0 n (%)
  Protein in urine, All: 1 (33.3) n (%)
  Protein in urine, Gr≥3: 0 n (%)
  Vomiting, All: 0 n (%)
